Data reported in PubChem BioAssay AID2060610 (Molecular Pharmacology Branch, DTP, NCI, 2025).

System: 616215-338-R-J1-PDC complex spheroids, viability % test/control
Experiment: Anticancer human tumor 616215-338-R-J1-PDC patient-derived colon adenocarcinoma cell line growth inhibition [CLK]
Settings: for IC50: curve of first compound; for viability, T/C: stronger effect = lower value
Procedure, shortened: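 Patient-derived tumor cells grown as complex spheroids with HUVEC endothelial cells and mesenchymal stem cells, treated with drug combinations. Concentrations descend in half-log steps from near clinical Cmax, or from 10 microM if Cmax unknown.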

[1] = second compound 0.0316 µM, first compound 0.0316 µM
[2] = second compound 0.0316 µM, first compound 0.1 µM
[3] = second compound 0.0316 µM, first compound 0.316 µM
[4] = second compound 0.0316 µM, first compound 1 µM
[5] = second compound 0.0316 µM, first compound 3.16 µM
[6] = second compound 0.0316 µM, first compound 10 µM
[7] = second compound 0.1 µM, first compound 0.0316 µM
[8] = second compound 0.1 µM, first compound 0.1 µM
[9] = second compound 0.1 µM, first compound 0.316 µM
[10] = second compound 0.1 µM, first compound 1 µM
[11] = second compound 0.1 µM, first compound 3.16 µM
[12] = second compound 0.1 µM, first compound 10 µM
[13] = second compound 0.316 µM, first compound 0.0316 µM
[14] = second compound 0.316 µM, first compound 0.1 µM
[15] = second compound 0.316 µM, first compound 0.316 µM
[16] = second compound 0.316 µM, first compound 1 µM
[17] = second compound 0.316 µM, first compound 3.16 µM
[18] = second compound 0.316 µM, first compound 10 µM
[19] = second compound 1 µM, first compound 0.0316 µM
[20] = second compound 1 µM, first compound 0.1 µM
[21] = second compound 1 µM, first compound 0.316 µM
[22] = second compound 1 µM, first compound 1 µM
[23] = second compound 1 µM, first compound 3.16 µM
[24] = second compound 1 µM, first compound 10 µM
[25] = second compound 3.16 µM, first compound 0.0316 µM
[26] = second compound 3.16 µM, first compound 0.1 µM
[27] = second compound 3.16 µM, first compound 0.316 µM
[28] = second compound 3.16 µM, first compound 1 µM
[29] = second compound 3.16 µM, first compound 3.16 µM
[30] = second compound 3.16 µM, first compound 10 µM
[31] = second compound 10 µM, first compound 0.0316 µM
[32] = second compound 10 µM, first compound 0.1 µM
[33] = second compound 10 µM, first compound 0.316 µM
[34] = second compound 10 µM, first compound 1 µM
[35] = second compound 10 µM, first compound 3.16 µM
[36] = second compound 10 µM, first compound 10 µM
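Further: spheroids exposed to agents for 7 days.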
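Wherever viability, T/C is given: 100% = DMSO vehicle wells.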

`C=CC(=O)N1CCN(c2nc(=O)n(-c3c(C)ccnc3C(C)C)c3nc(-c4c(O)cccc4F)c(F)cc23)C(C)C1` (centres undefined) + CNC(=O)c1ccc(Nc2nc(OC3CCCC3)c3c(-c4ccc5nc(C)oc5c4)c[nH]c3n2)c(OC)c1 was tested, and the IC50 (second compound 0.0316 µM) was > 10000 nM, the IC50 (second compound 0.1 µM) was > 10000 nM and the IC50 (second compound 0.316 µM) was < 31.6 nM. The IC50 (second compound 1 µM) was > 10000 nM, the IC50 (second compound 3.16 µM) was < 31.6 nM and the IC50 (second compound 10 µM) was < 31.6 nM. For the same molecule, the viability, T/C [1] was 89.8%, the viability, T/C [2] was 94.6% and the viability, T/C [3] was 92.8%. It also gave a viability, T/C [4] of 93.2%, a viability, T/C [5] of 94.6% and a viability, T/C [6] of 95.1%. The viability, T/C [7] was 53.8%, the viability, T/C [8] was 67.8% and the viability, T/C [9] was 60.8%. It also gave a viability, T/C [10] of 64%, a viability, T/C [11] of 55.1% and a viability, T/C [12] of 56.4%. For the same molecule, the viability, T/C [13] was 49.7%, the viability, T/C [14] was 44.8% and the viability, T/C [15] was 46.9%. For the same molecule, the viability, T/C [16] was 49.8%, the viability, T/C [17] was 53.1% and the viability, T/C [18] was 49.2%. For the same molecule, the viability, T/C [19] was 58.5%, the viability, T/C [20] was 49.1% and the viability, T/C [21] was 50.4%. It also gave a viability, T/C [22] of 48.9%, a viability, T/C [23] of 54.6% and a viability, T/C [24] of 54.6%. For the same molecule, the viability, T/C [25] was 43.2%, the viability, T/C [26] was 45.2% and the viability, T/C [27] was 40.1%. For the same molecule, the viability, T/C [28] was 49.1%, the viability, T/C [29] was 59.3% and the viability, T/C [30] was 52.6%. For the same molecule, the viability, T/C [31] was 43.5%, the viability, T/C [32] was 41.3% and the viability, T/C [33] was 46.3%. The viability, T/C [34] was 56.6%, the viability, T/C [35] was 53.6% and the viability, T/C [36] was 54.8%.

With `CC(CO)NC(=O)c1cc(-c2ccc(Cl)cc2)nn(-c2cnn(C)c2)c1=O` (centres undefined) + CNC(=O)c1ccc(Nc2nc(OC3CCCC3)c3c(-c4ccc5nc(C)oc5c4)c[nH]c3n2)c(OC)c1 the IC50 (second compound 0.0316 µM) was > 10000 nM, the IC50 (second compound 0.1 µM) was 487 nM and the IC50 (second compound 0.316 µM) was < 31.6 nM. The IC50 (second compound 1 µM) was < 31.6 nM, the IC50 (second compound 3.16 µM) was < 31.6 nM and the IC50 (second compound 10 µM) was < 31.6 nM. For the same molecule, the viability, T/C [1] was 85.1%, the viability, T/C [2] was 89% and the viability, T/C [3] was 89.2%. The viability, T/C [4] was 92.8%, the viability, T/C [5] was 91.1% and the viability, T/C [6] was 97.5%. The viability, T/C [7] was 58.9%, the viability, T/C [8] was 57.9% and the viability, T/C [9] was 48.7%. The viability, T/C [10] was 45.9%, the viability, T/C [11] was 50.6% and the viability, T/C [12] was 43.4%. The viability, T/C [13] was 36.4%, the viability, T/C [14] was 45.8% and the viability, T/C [15] was 40.2%. It also gave a viability, T/C [16] of 38.6%, a viability, T/C [17] of 48% and a viability, T/C [18] of 40.2%. The viability, T/C [19] was 43.5%, the viability, T/C [20] was 46% and the viability, T/C [21] was 46.3%. For the same molecule, the viability, T/C [22] was 41.8%, the viability, T/C [23] was 44.2% and the viability, T/C [24] was 35.3%. For the same molecule, the viability, T/C [25] was 45%, the viability, T/C [26] was 45.4% and the viability, T/C [27] was 36.2%. For the same molecule, the viability, T/C [28] was 38.4%, the viability, T/C [29] was 31.7% and the viability, T/C [30] was 30.3%. The viability, T/C [31] was 43.4%, the viability, T/C [32] was 43.4% and the viability, T/C [33] was 34.3%. For the same molecule, the viability, T/C [34] was 30.3%, the viability, T/C [35] was 34.3% and the viability, T/C [36] was 39.5%.
